Measurements: ChEMBL document CHEMBL1201862, “PubChem BioAssay data set” (2004)
Activity calls are given as the source filed them.

How the values were obtained:
Coagulation factor XII = biological target: T1, Coagulation factor XII (Homo sapiens, UniProt P00748); assay type: functional;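 further: activated factor XIIa alpha cleaving a fluorogenic AMC peptide substrate; inhibitor potency from loss of enzyme activity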
T1 sequence (P00748 whole entry): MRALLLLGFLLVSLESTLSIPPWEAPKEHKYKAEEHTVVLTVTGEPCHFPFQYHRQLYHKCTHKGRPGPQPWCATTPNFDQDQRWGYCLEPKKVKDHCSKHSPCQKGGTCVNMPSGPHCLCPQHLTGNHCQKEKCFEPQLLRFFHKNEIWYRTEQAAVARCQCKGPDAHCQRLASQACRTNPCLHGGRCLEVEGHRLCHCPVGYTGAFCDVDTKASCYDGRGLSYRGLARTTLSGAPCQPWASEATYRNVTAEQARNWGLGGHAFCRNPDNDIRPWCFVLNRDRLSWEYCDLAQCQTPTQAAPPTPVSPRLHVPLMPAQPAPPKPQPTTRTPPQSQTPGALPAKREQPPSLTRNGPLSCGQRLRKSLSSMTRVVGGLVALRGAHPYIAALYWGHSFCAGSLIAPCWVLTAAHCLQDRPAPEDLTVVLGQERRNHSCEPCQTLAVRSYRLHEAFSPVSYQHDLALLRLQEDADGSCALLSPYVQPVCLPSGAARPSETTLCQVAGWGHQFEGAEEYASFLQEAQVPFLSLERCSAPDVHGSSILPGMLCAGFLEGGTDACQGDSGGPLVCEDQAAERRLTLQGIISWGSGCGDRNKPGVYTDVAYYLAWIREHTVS

cells [1] = assay type: functional, cell-based
cells [2] = assay type: functional, cell-based; remark: listed apart in the source
[3] = HepG2 cell cytotoxicity, dose response, cytotoxicity control for Shn3 inhibitor project, CellTiter-Glo, cherry-picked (AID 624134); assay type: functional, cell-based
[4] = Shn3 3'UTR reporter inhibitors, dose response, cell-based, Clone20 osteoblasts, firefly luciferase, cherry-picked (AID 624132); assay type: functional;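 further: firefly luciferase luminescence from reporter carrying the Shn3 3'UTR in osteoblasts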
[5] = control 3'UTR Renilla luciferase suppression, dose response, counter-screen for Shn3 inhibitor project, cell-based, Clone20-Shn3RL, cherry-picked (AID 624133); assay type: functional
[6] = biological target: T2, Heat shock factor protein 1 (Mus musculus, UniProt P38532); assay: HSF1 potentiators in luciferase reporter cells, confirmation, cell-based, NIH3T3, luminescence, dose retest (AID 435004); assay type: functional;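 further: stress induced by proteasome inhibitor MG132 added 30 min after compound; luciferase reporter driven by HSF1 response element in NIH3T3 cells; actives raise luminescence as potentiators of the MG132 stress response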
T2 sequence (P38532 whole entry): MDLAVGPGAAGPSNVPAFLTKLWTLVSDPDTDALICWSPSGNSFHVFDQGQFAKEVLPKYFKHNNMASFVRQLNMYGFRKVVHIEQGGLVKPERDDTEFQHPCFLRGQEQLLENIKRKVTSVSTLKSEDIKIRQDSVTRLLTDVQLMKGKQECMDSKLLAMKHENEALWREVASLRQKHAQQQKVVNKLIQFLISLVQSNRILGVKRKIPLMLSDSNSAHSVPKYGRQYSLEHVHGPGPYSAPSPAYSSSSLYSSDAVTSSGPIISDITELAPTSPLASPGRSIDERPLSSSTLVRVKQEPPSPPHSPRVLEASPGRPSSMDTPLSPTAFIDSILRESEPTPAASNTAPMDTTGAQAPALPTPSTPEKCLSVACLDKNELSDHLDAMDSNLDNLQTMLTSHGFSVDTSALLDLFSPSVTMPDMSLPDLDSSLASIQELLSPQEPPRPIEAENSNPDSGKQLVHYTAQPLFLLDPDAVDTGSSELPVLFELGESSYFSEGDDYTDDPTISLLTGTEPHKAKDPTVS

BJ [7] = assay: cells; assay type: functional, cell-based; settings: Homo sapiens
[8] = cytotoxicity toward DRD oncogenic fibroblasts, dose response, cell-based, non-viral oncogenic, luminescence (AID 1934); assay type: functional; settings: Homo sapiens
BJ [9] = assay: cytotoxicity toward BJ-TERT fibroblasts, dose response, cell-based, RAS-independent, luminescence (AID 1933); assay type: functional; settings: Homo sapiens
BJ [10] = assay: cytotoxicity toward BJ-TERT-LT-ST fibroblasts, dose response, cell-based, RAS-independent, luminescence (AID 1935); assay type: functional; settings: Homo sapiens;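 further: BJ fibroblasts immortalized with TERT plus LT and ST oncogenes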
Protein RecA = biological target: T3, Protein RecA (Mycobacterium tuberculosis, UniProt P9WHJ3); assay: Fluorescence Cell-Free Homogeneous Dose Retest to Identify Inhibitors of RecA-Intein Splicing Activity. [Related pubchem assays (depositor defined):AID2097, AID2223, AID489010, AID492950]; assay type: functional
T3 sequence (P9WHJ3 whole entry): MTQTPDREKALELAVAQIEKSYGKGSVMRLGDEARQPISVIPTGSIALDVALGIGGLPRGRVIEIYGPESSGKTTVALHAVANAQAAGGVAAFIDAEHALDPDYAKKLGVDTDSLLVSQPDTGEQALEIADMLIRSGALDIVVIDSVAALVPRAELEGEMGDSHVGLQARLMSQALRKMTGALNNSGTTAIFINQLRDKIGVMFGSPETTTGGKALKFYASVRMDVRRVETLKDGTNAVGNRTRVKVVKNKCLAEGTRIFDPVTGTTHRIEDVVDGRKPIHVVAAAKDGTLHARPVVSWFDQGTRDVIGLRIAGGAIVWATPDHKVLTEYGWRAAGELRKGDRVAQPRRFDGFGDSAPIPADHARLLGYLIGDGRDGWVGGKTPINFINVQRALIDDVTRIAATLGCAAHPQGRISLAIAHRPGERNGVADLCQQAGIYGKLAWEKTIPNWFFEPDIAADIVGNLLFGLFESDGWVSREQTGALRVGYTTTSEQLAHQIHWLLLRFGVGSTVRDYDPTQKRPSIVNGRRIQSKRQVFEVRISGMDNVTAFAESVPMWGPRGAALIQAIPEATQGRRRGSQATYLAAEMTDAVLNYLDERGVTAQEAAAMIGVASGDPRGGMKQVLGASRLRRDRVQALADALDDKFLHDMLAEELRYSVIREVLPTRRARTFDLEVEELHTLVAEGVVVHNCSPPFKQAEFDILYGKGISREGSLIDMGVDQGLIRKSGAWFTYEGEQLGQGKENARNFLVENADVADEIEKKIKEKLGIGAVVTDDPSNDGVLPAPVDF

[11] = biological target: T4, Replicative DNA helicase DnaB (Mycobacterium tuberculosis, UniProt P9WMR3); assay: DnaB intein splicing inhibitors, dose response, biochemical, cell-free fluorescence (AID 449749); assay type: functional
T4 sequence (P9WMR3 whole entry): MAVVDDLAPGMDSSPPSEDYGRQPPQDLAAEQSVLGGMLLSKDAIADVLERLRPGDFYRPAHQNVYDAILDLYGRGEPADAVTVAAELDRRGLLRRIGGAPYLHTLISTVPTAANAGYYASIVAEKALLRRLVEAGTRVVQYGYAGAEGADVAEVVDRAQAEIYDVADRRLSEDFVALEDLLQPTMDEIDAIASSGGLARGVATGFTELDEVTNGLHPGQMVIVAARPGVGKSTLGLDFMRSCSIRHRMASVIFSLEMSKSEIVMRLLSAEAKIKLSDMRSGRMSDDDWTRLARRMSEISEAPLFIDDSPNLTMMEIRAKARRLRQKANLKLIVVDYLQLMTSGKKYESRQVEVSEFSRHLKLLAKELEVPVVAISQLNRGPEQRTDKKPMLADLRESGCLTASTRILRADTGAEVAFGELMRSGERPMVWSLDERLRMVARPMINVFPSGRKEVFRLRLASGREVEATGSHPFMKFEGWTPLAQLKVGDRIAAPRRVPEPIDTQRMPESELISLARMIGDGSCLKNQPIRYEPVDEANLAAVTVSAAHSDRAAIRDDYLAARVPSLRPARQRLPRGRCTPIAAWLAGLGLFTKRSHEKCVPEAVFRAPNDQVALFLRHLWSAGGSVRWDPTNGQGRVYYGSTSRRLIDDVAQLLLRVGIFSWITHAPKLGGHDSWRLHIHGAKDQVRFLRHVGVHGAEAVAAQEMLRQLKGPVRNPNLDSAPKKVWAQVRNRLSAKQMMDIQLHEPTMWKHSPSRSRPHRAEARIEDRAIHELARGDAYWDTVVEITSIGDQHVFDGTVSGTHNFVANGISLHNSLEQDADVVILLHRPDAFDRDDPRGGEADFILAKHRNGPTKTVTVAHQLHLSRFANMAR

[12] = cytotoxicity in HEK-293T cells, dose response, cytotoxicity control for TCR NF-kB inhibitor project, luminescence, T-cell screen hits (AID 489026); assay type: functional, cell-based;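 further: cells exposed to compound about 14 hours before the viability readout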
INS1 = assay: beta cell apoptosis inhibitors, cytokine rescue, dose response, luminescence, retest (AID 449756); assay type: functional, cell-based; settings: Rattus norvegicus;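 further: cell death triggered by IL-1 beta plus TNF-alpha plus IFN-gamma mixture; protective hits raise ATP signal compared with cytokine alone wells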
[13] = Luminescence Cell-Based Dose Retest to Confirm Inhibitors of Cancer Stem Cells. [Related pubchem assays (depositor defined):AID2717, AID2721]; assay type: functional; settings: Homo sapiens
[14] = intracellular Trypanosoma cruzi inhibitors in host cells – cell-based, plate reader, cherry-pick samples, set 3, dose response (AID 651818); assay type: functional;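 further: compounds incubated with infected cells for about four days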

CN1CCN(c2ccc(CNS(=O)(=O)Cc3ccc(Cl)cc3)cc2)CC1
IC50 (Coagulation factor XII): > 50 µM (inactive)

COc1ccc2nc(NC(=O)Nc3ccccc3OC)sc2c1
EC50 (cells [1]): > 350 µM (not active)
EC50 (cells [2]): 4.4 µM (active)

CCCCCn1c(N2CCN(c3cccc(Cl)c3)CC2)nc2c1c(=O)[nH]c(=O)n2C
AC50 [3]: 59.4 µM (active)
AC50 [4]: 21.8 µM (active)
AC50 [5]: 18.3 µM (active)
EC50 [6]: > 260 µM (inactive)

COc1cccc2sc(NC(=O)c3ccc(S(=O)(=O)N4CCOCC4)cc3)nc12
IC50 (Coagulation factor XII): > 50 µM (inactive)

COC(=O)c1ccc(C)c(NC(=O)CN(c2cc(OC)ccc2OC)S(C)(=O)=O)c1
EC50 (BJ [7]): > 150 µM (not active)
EC50 [8]: > 150 µM (inconclusive)
EC50 (BJ [9]): > 150 µM (not active)
EC50 (BJ [10]): > 150 µM (not active)

COC(CN(C(=O)CCl)C(C(=O)NC1CCCCC1)c1ccc(Cl)cc1)OC (stereo not given)
EC50 (cells [1]): > 350 µM (not active)
EC50 (Protein RecA): 1.81 µM (active)
EC50 (cells [2]): > 350 µM (not active)
AC50 [11]: 15.8 µM (active)

CC1=NC(C#N)=C(C#N)NC(C)(C)C1
EC50 (cells [1]): > 350 µM (not active)
EC50 (cells [2]): > 350 µM (not active)

O=C(NN=Cc1c(O)ccc2ccccc12)c1ccc2c(c1)OCO2
IC50 [12]: > 80 µM (inactive)

CC(C)(C)c1cc(C(=O)N/N=C/c2ccccc2O)n(-c2ccccc2)n1
AC50 (INS1): 3.37 µM (active)
AC50 [3]: 5.66 µM (active)
AC50 [4]: 2.25 µM (active)
AC50 [13]: 3.05 µM (active)
AC50 [5]: 2.18 µM (active)

Cc1noc(C)c1S(=O)(=O)Nc1ccc2c(c1)C(=O)N([C@H](C)CO)C[C@H](C)[C@@H](CN(C)C(=O)Nc1ccc(C(F)(F)F)cc1)OCCCC[C@@H](C)O2
AC50 [14]: 1.19 µM (active)
